# Source: a melting point compilation (Tetko et al.; mined from patent text by program, amines drawn as free bases though some values may be those of a salt)
row,SMILES,melting point [°C]
1,CCOC(=O)Cc1nc(-c2ccc(Cl)cc2)oc1OCC,144 to 146
2,CC(=O)NC[C@H]1CN(c2ccc(C3CCN(CC#N)CC3)c(F)c2)C(=O)O1,165 to 167
3,CCOC(=O)N(N=C[N+](=O)[O-])c1ccc(C(=O)OC)c(S(=O)(=O)NC(C)(C)C)c1,142 to 145
4,Fc1ccc(C2C=C(C(F)(F)F)NC3=C2SCC=C3)cc1Br (stereo unspecified),195 to 198
5,Cc1cc(Cn2nnc(C(N)=O)c2N)cc(C)c1C(=O)c1ccc(Cl)cc1,208 to 209
6,N#Cc1ccccc1-c1ccc(CBr)c(Br)c1,152 to 153
7,O=C(c1ccccc1)N1CCC(c2c[nH]c3cc(F)ccc23)CC1,220
8,CCOC(=O)C=CC=Cc1ccc(-n2ccnc2)cc1,126 to 127
9,O=c1c2ccccc2c(-c2ccccc2)cn1CCCCl,138
10,O=C(N/C(=C\c1c[nH]c2ccccc12)C(=O)NCCc1ccccn1)OC1C2CC3CC(C2)CC1C3 (stereo unspecified),188 to 200
11,CCCCCCC(O)CNCC(O)CO (stereo unspecified),85 to 90
12,CCCC(=O)c1cnc2c(C(O)CN3CCOCC3)cccc2c1Nc1ccccc1C (stereo unspecified),135 to 137
13,NC(C(=O)O)C(O)CC(=O)O (stereo unspecified),137 to 138
14,CC(=O)NC1CCC2C(C1)c1c(OC(C)=O)cc(OC(C)CCCc3ccccc3)cc1N(C)C2C (stereo unspecified),120 to 122
15,Cc1ccc2nc(N)nc(N)c2c1-c1cc(C(F)(F)F)cc(C(F)(F)F)c1,222 to 225
16,Cc1ccnc(N)c1C,79.5 to 81
17,Cc1c(C)c(N2CCN(c3ccc(C(F)(F)F)cc3)CC2)c(C)c2c1OC(C)(C)C2N1CCCCC1 (stereo unspecified),182 to 183
18,Cc1nn2c(C(F)(F)F)cc(-c3ccc(F)c(Cl)c3)nc2c1C#N,196
19,O=C(Nc1ccccc1)c1cc(NC(=S)Nc2cc(Cl)cc(Cl)c2)ccc1F,195 to 196
20,CC1(C)N=C(c2ccccc2F)c2cc(C#N)ccc2NC1=O,206
21,Cc1occc1Sc1cncc2sc(C(N)=O)cc12,236 to 239
22,CCc1noc(C(=O)Nc2ccccc2)c1C(=O)O,150 to 152
23,O=C(NCC1CC1)c1ccnc(N2CCN(Cc3ccc(F)cc3)C2=O)c1,135 to 137
24,CC(=O)N[C@@H](Cc1ccc(-c2c3ccccc3cc3ccccc23)cc1)C(=O)O,76
25,COC(=O)C(=CNC1CC1)C(=O)C=Cc1ccc(OC)cc1,125 to 127
26,CCCCCCCCOc1ccc(C(=O)Oc2ccc(C(=O)O)c(F)c2)cc1,147 to 148

row,SMILES,melting point [°C]
1,Cc1cccc(C(=O)NC(NC(=NC#N)Nc2ccc(Cl)nc2)C(C)(Cl)Cl)c1 (stereo unspecified),145 to 146
2,CN(C(CCn1c(=O)cc(C(F)(F)F)[nH]c1=O)C(=O)NO)S(=O)(=O)c1ccc(Oc2cccc(F)c2)cc1 (stereo unspecified),168 to 169
3,Cc1cc(Br)cc(C#N)c1,85 to 86
4,CC(C)(C)OC(=O)N[C@@H](CC1CCCCC1)[C@@H](O)CCO,77 to 79
5,CCc1nc2c(N)nc3ccccc3c2n1CC(C)(C)C(N)=O,279 to 281
6,CN1CCC(C2=CC(=O)CCC2)C1=O (stereo unspecified),42 to 46
7,Nc1n[nH]cc1C(=O)c1ccco1,153 to 155
8,N#CN=C(NCCO)NCCCSc1nccc(NC(N)=NCC(F)(F)F)n1,114 to 116
9,O=C(NO)c1ccc(CNC(=O)c2[nH]c(-c3ccoc3)cc2-c2ccc(O)cc2)cc1,159 to 160
10,COc1cc(NC(=O)CCCCCN2CCN(c3ccc(Cl)c(Cl)c3)CC2)c2nccc(C)c2c1,99 to 100
11,O=CN(Cn1cc(Cl)cnc1=O)c1ccccc1,200
12,Cc1cc(F)ccc1[C@@H]1CN(C2=CC(=O)CC2)CC[C@H]1C(=O)N(C)Cc1cc(C(F)(F)F)cc(C(F)(F)F)c1 (relative stereo),192 to 193
13,COc1cc(NC(=O)OCc2ccccc2)c(Cl)cc1C(=O)O,182 to 183
14,CC(Cc1ccc(OCc2ccccc2)cc1)C(=O)O (stereo unspecified),93 to 95
15,CN1CCN(C2CC3C4CCC5CC(O)C(N6CCC7(CC6)OCCO7)CC5(C)C4CCC3(C)C2O)CC1 (stereo unspecified),185 to 187
16,CSc1sc(-c2ccccn2)c2c1-c1oncc1C(C)(C)C2,153 to 155
17,CC12CCC3C(CCC4=C(N)C(=O)CCC43C)C1CCC2=O (stereo unspecified),186 to 188
18,CCOC(=O)c1cc2c(cn1)[nH]c1c(Br)cc([N+](=O)[O-])cc12,291 to 292
19,CC(=O)c1ccc2c(c1)S(=O)(=O)c1ccccc1O2,163 to 165
20,COCOc1ccc(-c2ncc3ccc(-c4csc(CN5CCN(C)CC5)c4)nc3n2)cc1,> 268
21,CCOc1cc(CCCC2OC(=O)NC2=O)ccc1OCc1coc(-c2ccccc2)n1 (stereo unspecified),119 to 120
22,Cc1cc(-c2c(Cl)ccc(C(=O)O)c2Cl)on1,154 to 156
23,COc1cc2cc(CO)c(CO)c(-c3ccnc(-n4c(=O)cc(C(=O)O)c5ccccc54)c3)c2cc1OC,> 250
24,Cn1c(Cc2ccc(Cl)cc2Cl)nc2cc(C(=O)O)ccc2c1=O,266 to 271
25,COc1ccc(-c2nc(-c3ccc(OC)cc3)nc(-c3ccccc3O)n2)cc1,205 to 206
26,Cc1ccc(OCc2ccccc2)c2[nH]c(CCc3ccccc3)nc12,203 to 204

row,SMILES,melting point [°C]
1,OC(c1ccc(OC(F)(F)F)cc1)(c1ccc(OC(F)(F)F)cc1)C1CCN(Cc2c[nH]c3cccc(F)c23)CC1,76 to 88
2,O=c1c2ccccc2n(-c2cccc([N+](=O)[O-])c2)c2nc3ccccc3n12,294
3,NC(=O)CCN1C(=O)C(=O)c2cc(F)ccc21,142 to 145
4,Cc1c(C=CCN2CCOCC2)[nH]c(=O)c2c1ccc1nc(Nc3c(Cl)cccc3Cl)n(C)c12,175 to 177
5,COC(=O)c1ccccc1S(=O)(=O)NC(=O)c1cc(C)on1,101
6,O=C(Nc1ccc(OC(F)(F)F)cc1)N[C@H]1CC[C@H](O)CC1,224 to 225
7,Cc1cc(Nc2ccccc2C(=O)O)n(Cc2ccncc2)n1,235 to 238
8,Cc1nc2cc3c(cc2c(=O)n1COC(=O)C(C)(C)C)C(Br)CC3 (stereo unspecified),98
9,Cc1oc2ccccc2c(=O)c1NC(=O)C(=O)O,208
10,COc1cc2nc(Cl)nc(Nc3ccc4[nH]ncc4c3)c2cc1OC,279 to 284
11,COc1cccc(CC(=O)N[C@H]2N=C(c3ccccc3)c3ccccc3N(C)C2=O)c1,198 to 199
12,CC(=O)Oc1cccc(-c2noc(C)n2)c1,94
13,CCC(=O)N(CC)c1cccc(-c2ccnc3c(C(=O)c4ccccc4)cnn23)c1,194 to 195
14,CCOC(=O)c1cnn2c(C3CC3)cc(-c3ccc(C(F)(F)F)cc3)cc12,117
15,COC(=O)c1ccc(S(C)(=O)=O)c(C2=NOCC2)c1C,104 to 106
16,COc1cccc(N(CC(=O)N(C)c2ccccc2)C(=O)CNC(=O)Nc2cccc(CO)c2)c1,142
17,O=C(O)COCc1nn(-c2ccc(Cl)cc2)c2c1CCC2,122 to 123
18,CN=C(O)c1c(Sc2ccc(OC)cc2)c(Sc2ccc(OC)cc2)c(Sc2ccc(OC)cc2)c(Sc2ccc(OC)cc2)c1C(=O)O,168 to 170
19,Cn1c(S(=O)(=O)CCO)nnc1S(=O)(=O)CCO,176 to 177
20,O=c1cc(CCO)c2cc(F)ccc2n1Cc1cc(Br)c(Br)c(Br)c1,135 to 140
21,CC=CC(=O)Nc1n[nH]c2ccc(C(F)(F)F)cc12,242
22,CC(C)(C#N)C1(c2ccc(Cl)cc2)CCC1,73 to 75
23,CCOC(=O)C(=CNc1ccc2c(c1)CCC2)C(=O)OCC,25 to 30
24,Cc1nn(C)c2c(O)nc(C3CC3)nc12,238 to 240
25,CCCC=Cc1c(C(C)C)nc(C(C)C)c(CO)c1-c1ccc(Cl)c(Cl)c1,46 to 48
26,CCCc1nc(/C=C/c2ccccc2)c(C(=O)OCC)n1Cc1cc2c(cc1Cl)OCO2,161

row,SMILES,melting point [°C]
1,CCC1(CC)NC(=O)N(c2ccc(Cl)c(C(F)(F)F)c2)C1=O,86 to 87
2,CN(c1cccc2cc(C3=NCC(CO)S3)[nH]c12)S(=O)(=O)c1cccs1 (stereo unspecified),207 to 208
3,O=c1c2ccc(Cl)cc2[nH]c2c(O)nn(CC#Cc3ccccc3Cl)c(=O)c12,255 to 257
4,CCc1ccc2c3c(c(=O)oc2c1)CNCC3,80 to 85
5,Cc1ccc(S(=O)(=O)Sc2cc(C)c(CO)cc2C(C)(C)C)cc1,121 to 122
6,Cc1nc2c(N)nc3ccccc3c2n1CC(C)(C)C(N)=O,284 to 287
7,CC(C)CC(C)(C(=O)NC1CCCCCCCCCCNC1=O)c1cccc(Cl)c1S (stereo unspecified),143 to 148
8,O=C(O)COc1c(-c2ccccc2)cc([N+](=O)[O-])cc1-c1ccccc1,154 to 156
9,COc1cc(OC)c(-c2cccs2)cc1/C=C/C(=O)c1ccc(S(=O)(=O)NCCCn2ccnc2)cc1,160 to 162
10,CCOC1CCC2(C)C(=CCC3C4CCC(=O)C4(C)CCC32)C1 (stereo unspecified),146 to 147
11,COC(=O)c1ccccc1NC(=O)N(C)C,85 to 90
12,Cc1cccc(/C(N)=C2\Sc3ccccc3C2=O)c1,114 to 115
13,CC(O)CC1NCc2ccsc2-n2cccc21 (stereo unspecified),130
14,NC1=NN(C(=O)NC=NO)C(=O)C1Cc1ccccc1 (stereo unspecified),195
15,O=C(NC1CC=CC1)OCc1ccccc1,56 to 57
16,C#CCN1C(=O)COc2cc(F)c(N)cc21,132 to 134
17,CCc1nc2nccc(-c3cccnc3)n2n1,147 to 149
18,COC(=O)c1c2cccccc-2c(-c2ccccc2)c1-c1ccc(S(C)(=O)=O)cc1,98 to 100
19,O=C(O)Cc1c(Cl)cnc2c(NC(=O)c3c(Cl)cccc3Cl)cccc12,257 to 259
20,CN1CCC2(CC1)NCc1cc(C(C)(C)C)cc(I)c1O2,155 to 156
21,CCOC(=O)C1=C(COCC2CO2)NC(C)=C(C(=O)OC)C1c1cccc(Cl)c1Cl (stereo unspecified),103 to 104
22,COc1ccccc1C1=C(C#N)C(c2cccc3nonc23)c2c[nH]nc2N1 (stereo unspecified),180
23,CC(C)(C)OC(=O)N1Cc2ccccc2CN1,68 to 71
